The subject of assay [1] is GnRH-specific B cells. Briefly: Inhibition of GnRH-tetramer staining of specific B cells by pre-incubation with unlabeled GnRH. It is filed as cell-based, mice. On the procedure: FIG. 3A: Unlabeled GnRH or Gastrin is able to inhibit the peptide-tetrameric molecule staining of the specific B cells. […] Splenocytes were pre-incubated with unlabeled GnRH or Gastrin, followed by incubation with labeled tetramers and anti-CD19 and anti-CD3 antibodies. Three doses of unlabeled antigens were used: 2 mM, 20 μM and 0.2 μM.
Lymphocytes were preincubated with unlabeled peptide followed by incubation with labeled tetramers, CD19 and CD3e antibodies.

In assay [2] the test system is hCG-specific B cells. Briefly: Double-tetramer (PE/APC hCG-tetramer) flow cytometry of rat lymphocytes after immunization with CTP-hCG. It is filed as in vivo. The following applies: rat spleen lymphocytes, days 10 to 12 after one i.p. immunization; hCG-tetramer double-staining; one value per rat (nos. 1-3). On the procedure:
Six eight-week-old rats were used and were treated according to the ethical guidelines of our institutions. Rats (nos. 1, 2, and 3) were immunized intraperitoneally on day 0 with 100 μg C-Terminal Peptide (CTP), which comprises amino acid position 109-145 of hCG, coupled with 300 μg KLH, in Complete Freunds Adjuvant (CFA). The accession number of hCG is p01233, the Swiss prot. entry name is CGHB_HUMAN.
Control rats (nos. 4, 5, and 6) were immunized with KLH in CFA. On days 10 to 12, the animals were sacrificed and spleens were harvested. All animal experiments were performed with permission from the local ethical committee (DEC).
Cell suspensions of splenocytes were obtained by mechanical disruption of the spleens. Lymphocytes were collected using a Ficoll gradient. The resulting single-cell suspensions were stained with hCG-tetramers at optimal dilution. Staining was conducted at 4° C. in two steps. First, cells were stained with the PE-labeled tetramer of hCG for one hour, using the empirically determined optimal concentration. Cells were then washed three times with FACS buffer. Next, cells were stained with the APC-labeled tetramer of hCG and washed again. […]
Lymphocytes were stained with hCG-tetramers. […] Only […] detected as a responder to the immunization based on specific B-cell responses.

Assay [3] deals with GnRH. The following applies: cited from earlier work; for biological effect: peptide conjugated to a carrier protein (Meloen et al., 1994; Oonk et al., 1998); for immunogenicity: peptide conjugated to a carrier protein, resulting in GnRH-neutralizing antibodies (Meloen et al., 1994; Oonk et al., 1998).
The test system of assay [4] is GnRH-specific B cells. Briefly: Staining of specific B cells with tetramers made from C-term, N-term or middle biotinylated GnRH. Format: cell-based, mice. The following applies: middle- or C-terminally biotinylated GnRH (FIG. 3B). The protocol:
FIG. 3B: Specific B cells are recognized only by C-term tetramer. Peptide-tetrameric molecules made with different biotinylated GnRH: C-term, N-term, and middle biotinylated peptides.
Tetrameric molecules were produced by mixing equal volumes of C-biotinylated, middle biotinylated or N-biotinylated GnRH at 200 μM (Pepscan Systems) with R-phycoerythrin (PE)-labeled neutravidin at 3.3 μM (PE-NA, Molecular Probes, Eugene, Oreg.), or allophycocyanin (APC)-labeled streptavidin at 6.1 μM (APC-SA, Molecular Probes). Each mixture was incubated at 4° C. for at least 12 hours. Then, tetramers were separated from non-complexed peptide by gel filtration using Bio-Gel P-30 spin columns (Bio-Rad, Hercules, Calif.).
As a further specificity test, we produced tetramers using peptides that were N-, middle-, or C-terminally labeled.

Values joined by “and” are separate entries in the source; they are usually repeats but may differ in a detail not shown here. Equal entries are not always repeated. Non-standard residues stand in square brackets, D forms with d. No end group written: not given here. *: point of attachment. Biotin = O=C1N[C@H]2[C@H](CS[C@H]2CCCCC(=O)*)N1; pGlu = O=C1CC[C@@H](C(=O)O)N1

Turning to “Unlabeled GnRH: Gonadotrophin-releasing hormone, a decapeptide, used unlabeled as competitor of tetramer staining (QHWSYGLRPG; ends and bridges not checked; UniProt P01148 24-33, looked up)”, the “inhibition of tetramer staining, dose dependence” value in assay [1] (lymphocytes preincubated with unlabeled peptide, then labeled tetramers (FIG. 3A)) is reported as “inhibited by inclusion of unlabeled peptide in a dose-dependent manner”. The “inhibition of peptide-tetramer staining of specific B cells” value in assay [1] (splenocytes pre-incubated with unlabeled antigen, higher dose of 2 mM, 20 μM and 0.2 μM) was “nearly abolished”.

With “CTP-KLH/CFA: C-Terminal Peptide, amino acid position 109-145 of hCG, coupled with KLH, in Complete Freunds Adjuvant (TCDDPRFQDSSSSKAPPPSLPSPSRLPGPSDTPILPQ; also: coupled with KLH, in Complete Freunds Adjuvant; UniProt P0DN86 129-165, looked up, fragment)”, the “Pos. B cells per 1 × 10^6 cells in Facs” value in assay [2] is 61 per 1 × 10^6 cells and 47 per 1 × 10^6 cells and 136 per 1 × 10^6 cells. As for “dimerized form of pEHWSYkLRPGQHWSYkLRPGC [TDK]”, in assay [3], the biological effect result is recorded as “full biological effect in all treated animals” and the immunogenicity entry is recorded as “highly immunogenic”. Turning to “N-term: tetramer of N-biotinylated GnRH with PE-labeled neutravidin or APC-labeled streptavidin (Biotin-QHWSYGLRPG; ends and bridges not checked; also: tetramer with PE-labeled neutravidin or APC-labeled streptavidin; UniProt P01148 24-33, looked up)”, the “detection of specific B cells by the tetramer” value in assay [4] is on record as “Only the C-term peptide was able to detect the specific cells”.

“C-term biotinylated GnRH tetrameric: C-biotinylated GnRH complexed with PE-labeled neutravidin or APC-labeled streptavidin (QHWSYGLRPG-biotin; ends and bridges not checked; also: tetramer with PE-labeled neutravidin or APC-labeled streptavidin; UniProt P01148 24-33, looked up)”: the “detection of specific B cells by the tetramer” value in assay [4] is recorded as “able to detect the specific B cells”. Same read-out and setting: in the case of “middle biotinylated peptides: tetramer of middle biotinylated GnRH with PE-labeled neutravidin or APC-labeled streptavidin (QHWSYGLRPG; ends and bridges not checked; also: middle biotinylated, tetramer with PE-labeled neutravidin or APC-labeled streptavidin; UniProt P01148 24-33, looked up)” it was “Only the C-term peptide was able to detect the specific cells”.

“pEHWSYGLRPGQHWSYGLRPGC ([pGlu]HWSYGLRPGQHWSYGLRPGC) [GnRH tandem]”: in assay [3], the biological effect entry is on record as “full biological effect in all treated animals” and the immunogenicity entry is given as “highly immunogenic”.

The values are drawn from patent US20070065428A1, “Early B-cell detection for selecting vaccines” (Pepscan Systems B.V., priority 2004, published 2007).
